Measured values taken from publication PMC9248008, “Mechanistic Studies of a Skatole-Forming Glycyl Radical Enzyme Suggest Reaction Initiation via Hydrogen Atom Transfer” (Journal of the American Chemical Society, 2022).

Key:
[1] = molecular target: T1, Ou IAD (indoleacetate decarboxylase from Olsenella uli) (Olsenella uli, UniProt E1QXZ2); assay: inhibition in assays with I3A; assay type: biochemical; conditions: partial competitive inhibitor versus I3A, not consumed
T1 construct: gene Olsu_0124; purified; glycyl radical installed by Ou IAD-AE with SAM; catalytic Gly853 and Cys500; tags and host only in supplement

[2] = molecular target: T2, Cs HPAD (hydroxyphenylacetate decarboxylase) (Clostridium scatologenes, UniProt Q38HX4); assay: p-cresol formation, deuterium incorporation in D2O; assay type: biochemical; conditions: mere turnover
T2 construct: gene csdB; glycyl radical enzyme; residues Cys503, Glu505, Glu637; with 4-hydroxyphenylacetate decarboxylase small subunit
T2 sequence (Q38HX3 whole entry): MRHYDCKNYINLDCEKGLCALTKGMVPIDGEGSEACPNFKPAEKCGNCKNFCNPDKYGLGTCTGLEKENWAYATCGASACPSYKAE
T2 sequence (Q38HX4 whole entry): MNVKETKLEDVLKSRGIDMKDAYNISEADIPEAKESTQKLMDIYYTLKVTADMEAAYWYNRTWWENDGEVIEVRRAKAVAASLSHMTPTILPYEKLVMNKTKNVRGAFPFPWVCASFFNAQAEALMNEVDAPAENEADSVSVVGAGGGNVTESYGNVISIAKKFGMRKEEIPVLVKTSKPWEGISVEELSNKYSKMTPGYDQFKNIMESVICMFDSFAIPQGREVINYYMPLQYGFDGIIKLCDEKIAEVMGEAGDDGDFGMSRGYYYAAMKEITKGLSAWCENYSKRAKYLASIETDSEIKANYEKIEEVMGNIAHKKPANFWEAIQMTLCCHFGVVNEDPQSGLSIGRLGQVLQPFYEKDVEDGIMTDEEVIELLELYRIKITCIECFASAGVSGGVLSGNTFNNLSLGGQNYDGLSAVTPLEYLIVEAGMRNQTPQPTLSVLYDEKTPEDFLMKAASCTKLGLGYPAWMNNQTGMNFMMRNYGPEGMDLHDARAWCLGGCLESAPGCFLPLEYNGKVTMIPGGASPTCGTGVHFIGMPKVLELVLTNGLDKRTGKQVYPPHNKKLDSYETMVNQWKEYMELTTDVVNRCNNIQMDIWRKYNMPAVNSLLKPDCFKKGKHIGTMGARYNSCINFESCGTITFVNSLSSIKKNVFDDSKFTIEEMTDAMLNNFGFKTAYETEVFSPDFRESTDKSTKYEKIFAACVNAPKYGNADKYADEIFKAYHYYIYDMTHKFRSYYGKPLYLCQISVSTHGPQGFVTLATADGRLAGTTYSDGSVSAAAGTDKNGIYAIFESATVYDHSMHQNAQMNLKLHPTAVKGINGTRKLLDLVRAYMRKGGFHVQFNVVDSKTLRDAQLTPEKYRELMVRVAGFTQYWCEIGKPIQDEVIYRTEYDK

T1 sequence (E1QXZ2 entry or part of it): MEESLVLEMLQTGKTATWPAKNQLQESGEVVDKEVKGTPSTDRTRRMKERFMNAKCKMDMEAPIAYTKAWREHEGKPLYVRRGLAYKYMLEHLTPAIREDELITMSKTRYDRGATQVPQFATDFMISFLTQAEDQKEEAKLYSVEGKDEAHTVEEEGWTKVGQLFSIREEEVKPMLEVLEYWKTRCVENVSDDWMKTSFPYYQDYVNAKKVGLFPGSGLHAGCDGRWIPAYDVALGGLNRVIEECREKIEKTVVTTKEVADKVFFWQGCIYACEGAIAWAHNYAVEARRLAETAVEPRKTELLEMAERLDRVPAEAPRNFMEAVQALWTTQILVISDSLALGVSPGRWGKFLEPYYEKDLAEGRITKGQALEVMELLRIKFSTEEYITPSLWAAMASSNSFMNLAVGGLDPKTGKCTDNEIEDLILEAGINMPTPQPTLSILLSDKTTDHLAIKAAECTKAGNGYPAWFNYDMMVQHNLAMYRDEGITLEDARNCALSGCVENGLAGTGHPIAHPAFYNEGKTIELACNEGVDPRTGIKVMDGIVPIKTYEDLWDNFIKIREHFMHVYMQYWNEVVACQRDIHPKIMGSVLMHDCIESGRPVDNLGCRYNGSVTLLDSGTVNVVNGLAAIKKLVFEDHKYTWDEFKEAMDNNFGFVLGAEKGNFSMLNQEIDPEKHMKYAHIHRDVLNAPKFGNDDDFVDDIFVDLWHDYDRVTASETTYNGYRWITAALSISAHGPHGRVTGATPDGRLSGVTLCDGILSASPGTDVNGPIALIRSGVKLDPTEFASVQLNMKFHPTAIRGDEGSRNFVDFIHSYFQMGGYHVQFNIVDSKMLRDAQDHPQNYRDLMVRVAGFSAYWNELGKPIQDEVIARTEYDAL

## CC(C(=O)O)c1c[nH]c2ccccc12 (racemic) [α-Me-I3A]
[1]; racemic
  inhibition in assays with I3A: Both compounds are partial competitive inhibitors in assays with I3A

## O=C(O)Cc1ccc(O)cc1 [HPA, p-hydroxyphenylacetate]
[2]
  p-cresol formation, deuterium incorporation in D2O: When HPA and Cs HPAD were incubated with D2O, only the expected D1-p-cresol

## CC(C)(C(=O)O)c1c[nH]c2ccccc12 [α,α-Me2-I3A]
[1]
  inhibition in assays with I3A: Both compounds are partial competitive inhibitors in assays with I3A
